Measured values reported in patent US6737507B2, “Antiangiogenic peptides and compositions thereof” (Children's Medical Center Corporation, priority 1999, dated 2004).

Experiments:
capillary tube formation = conditions: in vitro; cited from earlier work
neovascularization = assay: CAM assay (chick chorioallantoic membrane), neovascularization in vivo
Description: Assays for the ability to inhibit angiogenesis in vivo include the chick chorioallantoic membrane assay and mouse, rat or rabbit corneal pocket assays. See, Polverini et al., 1991, Methods Enzymol. 198:440-450. In corneal pocket assays, a tumor of choice is implanted into the cornea of the test animal in the form of a corneal pocket. The potential angiogenesis inhibitor is applied to the corneal pocket and the corneal pocket is routinely examined for neovascularization. The purified protein inhibited bFGF-stimulated EC proliferation in the bFGF stimulated EC proliferation assay (Moses, et al., Science, 248:1408-1410 (1990)) (FIG. 1) and inhibited neovascularization in vivo in the CAM assay.

[1] = tested on: capillary endothelial cells (EC); assay: bFGF-stimulated EC proliferation assay; type: cell-based; conditions: FIG. 1
Description: Inhibition of endothelial cell proliferation may be measured by calorimetric determination of cellular acid phosphatase activity or electronic cell counting. These methods provide a quick and sensitive screen for determining the number of endothelial cells in culture after treatment with the connective tissue growth factor protein, derivative, or analog of the invention, and an angiogenesis stimulating factor such as aFGF. The calorimetric determination of cellular acid phosphatase activity is described by Connolly et al., 1986, J. Anal. Biochem. J52:136-140. According to this method, capillary endothelial cells are treated with angiogenesis stimulating factors, such as aFGF, and a range of potential inhibitor concentrations. These samples are incubated to allow for growth, and then harvested, washed, lysed in a buffer containing a phosphatase substrate, and then incubated a second time. A basic solution is added to stop the reaction and color development is determined at […]. According to Connolly et al., a linear relationship is obtained between acid phosphatase activity and endothelial cell number up to 10,000 cells/sample. […] Percent inhibition is determined by comparing the cell number of samples exposed to stimulus with those exposed to both stimulus and inhibitor. […] Following incubation, the cells are harvested and the extent of thymidine incorporation is determined. […]

MMP-1 = molecular target: T1, MMP-1 (Homo sapiens, UniProt P03956); assay: MMP-1 activity assay; type: biochemical; conditions: FIG. 2
T1 sequence (P03956 100-469): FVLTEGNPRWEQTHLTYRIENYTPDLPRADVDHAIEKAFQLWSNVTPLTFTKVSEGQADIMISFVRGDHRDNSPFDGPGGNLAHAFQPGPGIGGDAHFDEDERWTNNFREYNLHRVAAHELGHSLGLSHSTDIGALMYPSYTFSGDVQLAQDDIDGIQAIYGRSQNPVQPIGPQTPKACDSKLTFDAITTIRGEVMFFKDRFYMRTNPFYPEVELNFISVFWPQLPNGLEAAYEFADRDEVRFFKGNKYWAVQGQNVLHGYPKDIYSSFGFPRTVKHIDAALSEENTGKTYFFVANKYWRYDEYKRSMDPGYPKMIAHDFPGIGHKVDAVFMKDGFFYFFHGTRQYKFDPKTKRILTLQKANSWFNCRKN
Description: FIG. 2: MMP-1 activity assay. The purified protein inhibited bFGF-stimulated EC proliferation in the bFGF stimulated EC proliferation assay (Moses, et al., Science, 248:1408-1410 (1990)) (FIG. 1) and inhibited neovascularization in vivo in the CAM assay.

endothelial cell = conditions: cited from earlier work
microvascular cells = conditions: in vitro, amnion invasion assay; cited from earlier work
MMP = assay: standard radiometric enzyme assay for MMP inhibition; type: biochemical
Description: After 24 hours, positive colonies were harvested, pooled and re-plated into minimal plates. Since multiple copies of the construct are reported to confer resistance to high levels of GF18 we screened for “jackpot” clones by replica plating in increasing doses of GF18, as high as 4 mg/ml. After four days, approximately five colonies containing multiple copies of the gene were screened for expression levels of TIMP-3 in 5 ml cultures. The two clones showing the highest expression, T3-3 His+Mut^s and T3-A His+Mut^s, were then used to inoculate 500 ml cultures, as was one clone containing pPIC9K vector alone as a control for background expression. Both T3-3 and T3-A produced a prominent protein band at app. […] Highly purified TIMP-3 was obtained by subsequent chromatography on a Progel-TSK G30000SWK HPLC column (Supelco) followed by SDS-PAGE and silver staining. […] Both T3-3 and T3-A were inhibitory when tested in the standard radiometric enzyme assay for MMP inhibition (Moses, M. A., et al., Science 248:1408-1410, (1990) and Moses, M. A., et al., J. Cell Biol. 119:475-482, (1992)).

For c1cnc2c(c1)ccc1cccnc12 [1,10-phenanthroline], the “inhibition of capillary tube formation” value (capillary tube formation) is listed as “could inhibit”.

For “CKITRCPMIPCYISSPDECLWMDWVTEKNINGHQAKFFACIKRSDGSCAWYRGA APPKQEFLDIEDP [purified protein]”, the “inhibition of neovascularization in vivo” value (neovascularization) was “inhibited”, the “inhibition of bFGF-stimulated EC proliferation” value [1] was “inhibited” and the “inhibition of MMP-1 activity” value (MMP-1) was “did not inhibit”.

For “TIMP-1: Tissue Inhibitor of MetalloProteinase 1”, the “inhibition of FGF-stimulated endothelial cell proliferation” value (endothelial cell; FGF-stimulated) is listed as “not”, the “effect on growth of EC proliferation” value (endothelial cell; other studies) is listed as “stimulate” and the “inhibition of migration of microvascular cells” value (microvascular cells) is listed as “could inhibit”.

B1: T3-3: full length human TIMP-3 expressed by Pichia pastoris clone T3-3 (protein)
chain: CTCSPSHPQDAFCNSDIVIRAKVVGKKLVKEGPFGTLVYTIKQMKMYRGFTKMPHVQYIHTEASESLCGLKLEVNKYQYLLTGRVYDGKMYTGLCNFVERWDQLTLSQRKGLNYRYHLGCNCKIKSCYYLPCFVTSKNECLWTDMLSNFGYPGYQSKHYACIRQKGGYCSWYRGWAPPDKSIINATDP
With B1 the MMP inhibition (MMP) was “inhibitory”.

B2: T3-A: full length human TIMP-3 expressed by Pichia pastoris clone T3-A (protein)
chain: CTCSPSHPQDAFCNSDIVIRAKVVGKKLVKEGPFGTLVYTIKQMKMYRGFTKMPHVQYIHTEASESLCGLKLEVNKYQYLLTGRVYDGKMYTGLCNFVERWDQLTLSQRKGLNYRYHLGCNCKIKSCYYLPCFVTSKNECLWTDMLSNFGYPGYQSKHYACIRQKGGYCSWYRGWAPPDKSIINATDP
In the case of B2, the MMP inhibition (MMP) is reported as “inhibitory”.
